# Data as given in US20260216156A1, “METHODS AND COMPOSITIONS FOR THE TREATMENT OF HEARING DISORDERS” (Gateway Biotechnology, Inc., priority 2023, published 2026).
# Where two headings read alike, the source gives them in different places.
# Tests used:
# [1] = anesthetized rats, cited from earlier work
# [2] = Ciliotoxicity of microemulsion formulation; conditions: microemulsion: 8% Labrafil M 1944CS, 30% Cremophor RH 40/ethanol (3:1) and water
# [3] = cited from earlier work; for Bioavailability outside of the central nervous system: humans
# [4] = test system: mice suffering from noise induced tinnitus; test: Sound-based avoidance detection (SBAD), No-Go trials; assay type: in vivo; conditions: for No-Go trial correct rate: tinnitus mice
# Description: Using a shuttle box divided into two compartments, mice were trained to cross from side to side with sound cues in the “Go” trials and remain still in the absence of sound in the “No-Go” trials for 15 days. […] The sound cues were randomly played as white noise or narrow-band noise at 5, 10, 16, 20, and 32 kHz with sound intensities randomly at 75, 80, or 85 dB. […] Additionally, a hurdle was added on training 11 to reinforce the training. After the 15th training day, mice were tested for 3 days to obtain a baseline score to be compared after noise exposure, as well as retraining for 3 days. Following the successful completion of training so that mice reached a high percentage of success in the trials, the mice were exposed to a noise-induced trauma for tinnitus. To ensure that the mice still have their hearing, one ear was protected with an ear plug, while the other ear was exposed to the noise. The mice were placed in a sound booth where they were exposed to 120 dB broadband noise at 4-25 kHz for 2-4 hours. Following the noise exposure, the mice were housed for one month, and then tested to see if they have developed tinnitus. In these testing periods, the mice were tested for three days in the shuttle boxes, where they underwent the Go and No-Go trials, however in the No-Go trials the mice were not shocked, as it is expected that mice with tinnitus would cross compartments in the absence of a sound cue. The mice were continued to be shocked in the Go trials in order to ensure that they have retained their hearing and can hear the sound cues. […] To insure there is a significant difference in the No-Go trial scores, chi-square tests were completed comparing the post-noise exposure tests to the baseline tests. However, if tinnitus is not present in the mice, tests were done after waiting one more month, and another if needed. Mice received dosages of NMDP initially via intraperitoneal injection (i.p.). The Go and No-Go scores for the tests were compared using chi-square tests in Social Science Statistics. […] Following this conclusion, the mice were tested accordingly to determine if their No-Go scores could be improved by different drug doses and combinations.
# [5] = Pharmacokinetics after intranasal administration, blood samples, NMDP by HPLC; assay type: in vivo
# [6] = test system: mice suffering from noise induced tinnitus; test: Sound-based avoidance detection (SBAD), Go trials; assay type: in vivo
# Description: Using a shuttle box divided into two compartments, mice were trained to cross from side to side with sound cues in the “Go” trials and remain still in the absence of sound in the “No-Go” trials for 15 days. […] The sound cues were randomly played as white noise or narrow-band noise at 5, 10, 16, 20, and 32 kHz with sound intensities randomly at 75, 80, or 85 dB. […] Additionally, a hurdle was added on training 11 to reinforce the training. After the 15th training day, mice were tested for 3 days to obtain a baseline score to be compared after noise exposure, as well as retraining for 3 days. Following the successful completion of training so that mice reached a high percentage of success in the trials, the mice were exposed to a noise-induced trauma for tinnitus. To ensure that the mice still have their hearing, one ear was protected with an ear plug, while the other ear was exposed to the noise. The mice were placed in a sound booth where they were exposed to 120 dB broadband noise at 4-25 kHz for 2-4 hours. Following the noise exposure, the mice were housed for one month, and then tested to see if they have developed tinnitus. In these testing periods, the mice were tested for three days in the shuttle boxes, where they underwent the Go and No-Go trials, however in the No-Go trials the mice were not shocked, as it is expected that mice with tinnitus would cross compartments in the absence of a sound cue. The mice were continued to be shocked in the Go trials in order to ensure that they have retained their hearing and can hear the sound cues. […] To insure there is a significant difference in the No-Go trial scores, chi-square tests were completed comparing the post-noise exposure tests to the baseline tests. However, if tinnitus is not present in the mice, tests were done after waiting one more month, and another if needed. Mice received dosages of NMDP initially via intraperitoneal injection (i.p.). The Go and No-Go scores for the tests were compared using chi-square tests in Social Science Statistics. […]
# [7] = Microemulsion formulation: NMDP solubility and droplet size; assay type: physicochemical; conditions: aqueous with cosolvent or surfactant or cyclodextrin, 8% Labrafil M 1944CS, 30% Cremophor RH 40/ethanol (3:1) and water
# [8] = cited from earlier work
# [9] = after feeding to rats; cited from earlier work
molecule,measurement,setting,value
"human growth hormone: human growth hormone, nasal bioavailability modestly increased by N-acetyl-L-cysteine",nasal bioavailability,[1]; with N-acetyl-L-cysteine,12.2%
same,nasal bioavailability,[1]; without N-acetyl-L-cysteine,7.5%
"COCCOC(=O)C1=C(C)NC(C)=C(C(=O)OC(C)C)C1c1cccc([N+](=O)[O-])c1 (centres unmarked) [NMDP, nimodipine]",ciliotoxicity,[2],no ciliotoxicity
same,share of NMDP reaching the brain,[3]; due to high affinity binding of plasma proteins,5%
same,Bioavailability outside of the central nervous system,[3]; intravenous administration,100%
same,Bioavailability outside of the central nervous system,"[3]; oral administration, extensive first-pass metabolism",3-30%
same,No-Go scores: behavioral changes,"[4]; mice, 10, 30, and 50 mg/kg i.p.",did not cause any behavioral changes
same,No-Go trial correct rate,[4]; 30 mg/kg i.p.,~100 % correct
same,No-Go trial correct rate,[4]; 50 mg/kg i.p.,~100 % correct
same,No-Go trial correct rate,"[4]; intranasal formulation of Example 15 F1, 0.9 mg/mouse (or 30 mg/kg)",~100 % correct
same,"pharmacokinetics, intranasal versus intravenous","[5]; Example 1: carrier, citrate buffer, benzalkonium chloride, water, about 50 mg/mL, 50 μL per nasal cavity",comparable to that of intravenously administered NMDP
same,"pharmacokinetics, intranasal versus intravenous","[5]; Example 2: carriers, non-aqueous solvent, surfactant, about 50 mg/mL, 50 μL per nasal cavity",comparable to that of intravenously administered NMDP
same,"pharmacokinetics, intranasal versus intravenous","[5]; Example 3: mPEG350, PEG400, water, no non-ionic surfactant, about 100 mg/ml, 50 μL per nasal cavity",comparable to that of intravenously administered NMDP
same,"pharmacokinetics, intranasal versus intravenous","[5]; Example 4: mPEG350, PEG400, water, ethanol, no non-ionic surfactant, about 100 mg/mL, 50 μL per nasal cavity",comparable to that of intravenously administered NMDP
same,"pharmacokinetics, intranasal versus intravenous","[5]; Example 7: six volunteer subjects with tinnitus, nasal spray of Example 5, 50 μL per nare, about 20 mg",comparable to that of intravenously administered NMDP
same,"pharmacokinetics, intranasal versus intravenous","[5]; Example 8: vesicular composition (phospholipid, C2-C4 alcohols, water), about 200 mg/mL, 50 μL per nasal cavity",comparable to that of intravenously administered NMDP
same,bioavailability,"[5]; human, plasma, inhaled or intranasal, microemulsion, single intranasal administration, 2 mg/kg, read-out: absolute bioavailability",~32%
same,time of plasma concentration peak,"[5]; microemulsion, single intranasal administration, 2 mg/kg",1 h
same,Go trial correct rate,[6]; 10 mg/kg i.p.,~100 % correct
same,Go trial correct rate,[6]; 30 mg/kg i.p.,~100 % correct
same,Go scores: effect on ability to hear the sounds presented,[6]; i.p.,did not have an effect
same,solubility,[7],≤ 6400 µg/mL
same,Water solubility,[8],12 µg/mL
same,water solubility (in words),[8],poor water solubility
same,solubility in ethanol,[8]; ethanol,freely soluble
Phaseolus vulgaris hemagglutinin,oral bioavailability,[9],more than 10%
